Legend:
Assay in all cases: KINOMEscan (ScanMAX) kinase profiling
Format in all cases: binding
panel of 468 kinases [1] = biological target: T1, panel of 468 kinases (Homo sapiens, UniProt Q56UN5); conditions: YSK4; 1 μM; read-out: % control
T1 construct: purchased KINOMEscan (ScanMAX) service
T1 sequence (Q56UN5 1-1328): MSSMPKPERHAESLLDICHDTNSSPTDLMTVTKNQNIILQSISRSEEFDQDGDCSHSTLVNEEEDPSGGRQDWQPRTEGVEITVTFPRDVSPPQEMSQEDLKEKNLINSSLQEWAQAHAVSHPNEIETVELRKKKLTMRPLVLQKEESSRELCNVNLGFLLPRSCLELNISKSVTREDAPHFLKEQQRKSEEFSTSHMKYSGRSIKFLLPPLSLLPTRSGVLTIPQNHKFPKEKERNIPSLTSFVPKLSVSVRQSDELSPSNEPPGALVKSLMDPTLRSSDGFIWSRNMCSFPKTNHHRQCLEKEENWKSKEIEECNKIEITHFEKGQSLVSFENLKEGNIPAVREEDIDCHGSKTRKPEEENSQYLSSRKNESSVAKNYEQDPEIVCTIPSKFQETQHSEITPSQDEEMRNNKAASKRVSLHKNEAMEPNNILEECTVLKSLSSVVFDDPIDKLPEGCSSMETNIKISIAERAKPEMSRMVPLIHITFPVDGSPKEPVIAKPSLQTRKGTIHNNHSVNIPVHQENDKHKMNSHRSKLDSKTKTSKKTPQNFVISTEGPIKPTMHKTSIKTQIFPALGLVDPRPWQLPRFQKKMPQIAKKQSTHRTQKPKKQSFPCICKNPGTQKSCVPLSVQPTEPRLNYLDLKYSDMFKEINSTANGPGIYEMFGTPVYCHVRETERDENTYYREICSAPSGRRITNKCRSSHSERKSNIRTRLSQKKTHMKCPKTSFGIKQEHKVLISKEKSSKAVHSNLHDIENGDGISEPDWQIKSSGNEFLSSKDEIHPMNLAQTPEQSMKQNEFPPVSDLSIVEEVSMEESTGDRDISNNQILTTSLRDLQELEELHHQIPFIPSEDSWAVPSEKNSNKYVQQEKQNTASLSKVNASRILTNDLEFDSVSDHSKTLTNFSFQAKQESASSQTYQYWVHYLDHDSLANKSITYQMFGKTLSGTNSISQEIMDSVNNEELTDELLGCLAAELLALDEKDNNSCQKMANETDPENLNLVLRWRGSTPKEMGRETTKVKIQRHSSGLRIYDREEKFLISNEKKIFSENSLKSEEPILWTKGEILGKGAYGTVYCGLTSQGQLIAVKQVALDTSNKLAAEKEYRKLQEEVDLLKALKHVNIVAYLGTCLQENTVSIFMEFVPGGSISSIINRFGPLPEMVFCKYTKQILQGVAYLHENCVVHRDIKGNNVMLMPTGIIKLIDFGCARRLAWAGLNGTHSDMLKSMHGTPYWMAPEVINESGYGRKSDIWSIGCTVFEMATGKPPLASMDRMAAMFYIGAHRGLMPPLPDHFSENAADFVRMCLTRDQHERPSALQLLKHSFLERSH

panel of 468 kinases [2] = biological target: T2, panel of 468 kinases (Homo sapiens, UniProt Q05397); conditions: FAK; 1 μM; read-out: % control
T2 construct: purchased KINOMEscan (ScanMAX) service
T2 sequence (Q05397 whole entry): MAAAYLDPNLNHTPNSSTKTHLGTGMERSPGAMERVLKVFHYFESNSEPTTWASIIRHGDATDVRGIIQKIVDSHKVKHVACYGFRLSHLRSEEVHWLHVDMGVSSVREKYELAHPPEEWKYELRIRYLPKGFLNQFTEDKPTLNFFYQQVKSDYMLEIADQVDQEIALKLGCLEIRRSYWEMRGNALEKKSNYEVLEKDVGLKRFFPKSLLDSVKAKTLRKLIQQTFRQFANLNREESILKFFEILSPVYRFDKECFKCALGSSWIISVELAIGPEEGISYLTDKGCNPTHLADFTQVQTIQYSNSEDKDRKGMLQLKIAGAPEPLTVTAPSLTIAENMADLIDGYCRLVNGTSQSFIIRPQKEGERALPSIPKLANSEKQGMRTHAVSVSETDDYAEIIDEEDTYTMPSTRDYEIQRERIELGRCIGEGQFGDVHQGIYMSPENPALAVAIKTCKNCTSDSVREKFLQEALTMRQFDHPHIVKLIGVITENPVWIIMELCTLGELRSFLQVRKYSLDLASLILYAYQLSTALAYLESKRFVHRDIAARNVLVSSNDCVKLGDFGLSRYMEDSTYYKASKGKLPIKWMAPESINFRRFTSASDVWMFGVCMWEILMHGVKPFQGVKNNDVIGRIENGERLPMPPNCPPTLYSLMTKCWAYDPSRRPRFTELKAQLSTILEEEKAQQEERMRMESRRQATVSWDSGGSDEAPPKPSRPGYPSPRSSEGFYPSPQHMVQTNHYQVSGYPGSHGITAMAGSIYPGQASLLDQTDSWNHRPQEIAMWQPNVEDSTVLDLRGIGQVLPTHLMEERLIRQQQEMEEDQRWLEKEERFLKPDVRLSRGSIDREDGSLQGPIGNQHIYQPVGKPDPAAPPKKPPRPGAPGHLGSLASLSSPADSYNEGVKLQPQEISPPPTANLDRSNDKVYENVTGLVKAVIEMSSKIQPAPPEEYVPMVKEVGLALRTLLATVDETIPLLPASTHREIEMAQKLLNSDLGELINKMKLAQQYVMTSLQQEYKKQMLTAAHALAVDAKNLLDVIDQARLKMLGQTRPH

panel of 468 kinases [3] = biological target: T3, panel of 468 kinases (Homo sapiens, UniProt P08581, Y1235D); conditions: MET(Y1235D); 1 μM; read-out: % control
T3 construct: purchased KINOMEscan (ScanMAX) service
T3 sequence (P08581 25-1390 Y1235D): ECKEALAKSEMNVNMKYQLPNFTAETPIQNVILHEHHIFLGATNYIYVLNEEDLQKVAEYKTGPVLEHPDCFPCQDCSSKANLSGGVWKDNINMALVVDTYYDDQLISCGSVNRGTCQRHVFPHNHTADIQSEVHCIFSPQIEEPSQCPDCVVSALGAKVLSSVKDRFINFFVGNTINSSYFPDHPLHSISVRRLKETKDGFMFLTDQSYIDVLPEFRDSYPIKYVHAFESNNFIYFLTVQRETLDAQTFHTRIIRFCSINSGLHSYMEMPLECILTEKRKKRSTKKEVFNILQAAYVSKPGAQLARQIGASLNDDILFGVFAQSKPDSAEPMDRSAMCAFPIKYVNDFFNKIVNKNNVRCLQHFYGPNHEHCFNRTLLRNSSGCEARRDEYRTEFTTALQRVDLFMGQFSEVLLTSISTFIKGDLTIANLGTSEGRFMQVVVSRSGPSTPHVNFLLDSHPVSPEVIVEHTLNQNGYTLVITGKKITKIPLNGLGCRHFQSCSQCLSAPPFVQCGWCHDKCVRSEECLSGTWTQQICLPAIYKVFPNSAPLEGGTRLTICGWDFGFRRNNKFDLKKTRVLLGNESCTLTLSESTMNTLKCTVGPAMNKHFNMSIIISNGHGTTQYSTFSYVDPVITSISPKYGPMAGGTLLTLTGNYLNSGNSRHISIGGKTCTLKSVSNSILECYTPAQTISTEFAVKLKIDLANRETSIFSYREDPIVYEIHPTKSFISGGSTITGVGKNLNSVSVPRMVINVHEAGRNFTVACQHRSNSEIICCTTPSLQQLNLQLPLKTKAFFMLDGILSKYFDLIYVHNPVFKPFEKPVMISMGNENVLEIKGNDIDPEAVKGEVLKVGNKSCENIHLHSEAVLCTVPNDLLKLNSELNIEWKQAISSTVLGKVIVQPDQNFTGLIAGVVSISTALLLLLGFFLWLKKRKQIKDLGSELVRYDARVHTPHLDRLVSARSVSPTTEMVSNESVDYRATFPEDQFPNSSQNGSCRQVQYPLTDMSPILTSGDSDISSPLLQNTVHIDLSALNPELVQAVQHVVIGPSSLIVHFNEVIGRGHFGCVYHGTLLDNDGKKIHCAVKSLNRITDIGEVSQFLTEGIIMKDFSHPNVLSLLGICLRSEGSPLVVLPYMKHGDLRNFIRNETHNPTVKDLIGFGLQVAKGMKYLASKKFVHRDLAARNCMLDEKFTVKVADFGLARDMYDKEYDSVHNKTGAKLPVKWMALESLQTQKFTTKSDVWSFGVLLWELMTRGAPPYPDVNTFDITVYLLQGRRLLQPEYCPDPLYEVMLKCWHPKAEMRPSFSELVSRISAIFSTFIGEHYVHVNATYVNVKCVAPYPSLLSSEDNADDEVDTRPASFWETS

panel of 468 kinases [4] = biological target: T4, panel of 468 kinases (Homo sapiens, UniProt Q99759); conditions: MAP3K3; 1 μM; read-out: % control
T4 construct: purchased KINOMEscan (ScanMAX) service
T4 sequence (Q99759 1-626): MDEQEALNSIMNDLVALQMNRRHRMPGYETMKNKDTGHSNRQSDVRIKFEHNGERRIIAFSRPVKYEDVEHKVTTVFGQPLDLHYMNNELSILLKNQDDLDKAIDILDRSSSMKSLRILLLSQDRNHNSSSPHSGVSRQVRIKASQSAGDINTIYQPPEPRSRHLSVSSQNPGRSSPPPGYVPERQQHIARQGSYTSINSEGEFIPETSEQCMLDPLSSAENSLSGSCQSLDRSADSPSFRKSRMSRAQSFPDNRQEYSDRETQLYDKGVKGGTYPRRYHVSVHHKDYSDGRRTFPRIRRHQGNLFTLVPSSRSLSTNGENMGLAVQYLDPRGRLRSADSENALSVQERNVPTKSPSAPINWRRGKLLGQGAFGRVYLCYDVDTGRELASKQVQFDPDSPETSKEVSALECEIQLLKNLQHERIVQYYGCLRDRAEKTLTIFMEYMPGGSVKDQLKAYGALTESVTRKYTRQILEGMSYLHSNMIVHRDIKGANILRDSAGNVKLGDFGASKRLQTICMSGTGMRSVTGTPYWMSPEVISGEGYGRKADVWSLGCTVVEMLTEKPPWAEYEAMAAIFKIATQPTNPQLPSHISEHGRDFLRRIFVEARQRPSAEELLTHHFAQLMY

panel of 468 kinases [5] = biological target: T5, panel of 468 kinases (Homo sapiens, UniProt Q9H3Y6); conditions: SRMS; 1 μM; read-out: % control
T5 construct: purchased KINOMEscan (ScanMAX) service
T5 sequence (Q9H3Y6 whole entry): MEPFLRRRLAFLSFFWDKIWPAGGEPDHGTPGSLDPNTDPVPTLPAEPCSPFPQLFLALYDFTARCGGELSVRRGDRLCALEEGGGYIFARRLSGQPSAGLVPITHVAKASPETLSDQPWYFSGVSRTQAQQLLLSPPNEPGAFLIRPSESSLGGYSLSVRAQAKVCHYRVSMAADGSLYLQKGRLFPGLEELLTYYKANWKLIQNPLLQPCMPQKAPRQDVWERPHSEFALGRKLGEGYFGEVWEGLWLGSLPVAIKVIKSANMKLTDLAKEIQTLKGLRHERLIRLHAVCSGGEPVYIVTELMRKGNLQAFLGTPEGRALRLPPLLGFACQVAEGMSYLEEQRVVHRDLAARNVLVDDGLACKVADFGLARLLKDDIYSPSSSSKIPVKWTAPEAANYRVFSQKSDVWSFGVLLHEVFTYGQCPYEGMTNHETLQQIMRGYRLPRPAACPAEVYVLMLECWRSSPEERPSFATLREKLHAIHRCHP

panel of 468 kinases [6] = biological target: T6, panel of 468 kinases (Homo sapiens, UniProt P51955); conditions: NEK2; 1 μM; read-out: % control
T6 construct: purchased KINOMEscan (ScanMAX) service
T6 sequence (P51955 1-445): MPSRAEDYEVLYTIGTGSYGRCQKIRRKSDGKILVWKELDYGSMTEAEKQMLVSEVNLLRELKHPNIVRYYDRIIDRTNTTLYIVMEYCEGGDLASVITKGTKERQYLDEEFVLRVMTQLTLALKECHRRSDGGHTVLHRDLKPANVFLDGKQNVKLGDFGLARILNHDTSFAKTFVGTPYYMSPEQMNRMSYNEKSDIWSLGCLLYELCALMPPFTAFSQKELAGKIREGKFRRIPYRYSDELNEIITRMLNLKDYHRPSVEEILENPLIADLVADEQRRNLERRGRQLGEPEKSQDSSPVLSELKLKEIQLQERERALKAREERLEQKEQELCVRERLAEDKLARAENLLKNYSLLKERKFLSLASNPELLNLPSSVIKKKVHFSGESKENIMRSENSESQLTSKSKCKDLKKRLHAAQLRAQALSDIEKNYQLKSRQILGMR

SMILES	remaining binding at 1 µM (panel of 468 kinases [1])	remaining binding at 1 µM (panel of 468 kinases [2])	remaining binding at 1 µM (panel of 468 kinases [3])	remaining binding at 1 µM (panel of 468 kinases [4])	remaining binding at 1 µM (panel of 468 kinases [5])	remaining binding at 1 µM (panel of 468 kinases [6])
CNc1nc(Nc2ccc(C(=O)N3CCC(N4CCOCC4)CC3)c3c2OCO3)nc2[nH]cc(Cl)c12 [Compound 75, (7-((5-chloro-4-(methylamino)-7H-pyrrolo[2,3-d]pyrimidin-2-yl)amino)benzo[d][1,3]dioxol-4-yl)(4-morpholinopiperidin-1-yl)methanone]	0.25%	39%	100%	43%	70%	100%
CNc1nc(Nc2ccc(S(=O)(=O)N3CCC(N4CCOCC4)CC3)cc2OC)nc2[nH]cc(Cl)c12 [Compound 12, 5-chloro-N2-(2-methoxy-4-((4-morpholinopiperidin-1-yl)sulfonyl)phenyl)-N4-methyl-7H-pyrrolo[2,3-d]pyrimidine-2,4-diamine]	59%	19%	100%	100%	66%	100%
CNc1nc(Nc2ccc(P3(=O)CCN(C4CCOCC4)CC3)cc2OC)nc2[nH]cc(Cl)c12 [Compound 77, 4-(4-((5-chloro-4-(methylamino)-7H-pyrrolo[2,3-d]pyrimidin-2-yl)amino)-3-methoxyphenyl)-1-(tetrahydro-2H-pyran-4-yl)-1,4-azaphosphinane 4-oxide]	4.2%	33%	100%	100%	64%	100%
